Target: T1, purified sGC (bovine lung soluble guanylyl cyclase) (Bos taurus, UniProt P16068)
T1 construct: gene GUCY1B1; native enzyme purified from bovine lung; with Guanylate cyclase soluble subunit alpha-1
T1 sequence (P16068 1-619): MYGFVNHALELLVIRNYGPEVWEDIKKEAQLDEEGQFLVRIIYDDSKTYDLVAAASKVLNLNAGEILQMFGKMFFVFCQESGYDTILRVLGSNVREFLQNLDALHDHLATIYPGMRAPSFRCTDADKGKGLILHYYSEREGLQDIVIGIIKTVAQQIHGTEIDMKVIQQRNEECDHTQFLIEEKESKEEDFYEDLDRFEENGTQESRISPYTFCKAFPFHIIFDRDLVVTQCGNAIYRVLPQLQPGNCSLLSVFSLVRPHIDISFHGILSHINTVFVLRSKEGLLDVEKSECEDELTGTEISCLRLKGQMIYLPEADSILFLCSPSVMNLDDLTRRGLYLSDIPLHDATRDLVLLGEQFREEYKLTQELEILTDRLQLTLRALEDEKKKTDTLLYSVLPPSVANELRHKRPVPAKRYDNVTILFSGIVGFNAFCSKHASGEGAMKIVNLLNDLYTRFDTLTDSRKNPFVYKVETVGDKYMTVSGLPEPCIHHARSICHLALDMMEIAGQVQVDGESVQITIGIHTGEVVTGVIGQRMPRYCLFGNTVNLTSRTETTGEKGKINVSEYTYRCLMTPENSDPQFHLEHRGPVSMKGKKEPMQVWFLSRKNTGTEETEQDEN
T1 sequence (P19687 1-691 partner): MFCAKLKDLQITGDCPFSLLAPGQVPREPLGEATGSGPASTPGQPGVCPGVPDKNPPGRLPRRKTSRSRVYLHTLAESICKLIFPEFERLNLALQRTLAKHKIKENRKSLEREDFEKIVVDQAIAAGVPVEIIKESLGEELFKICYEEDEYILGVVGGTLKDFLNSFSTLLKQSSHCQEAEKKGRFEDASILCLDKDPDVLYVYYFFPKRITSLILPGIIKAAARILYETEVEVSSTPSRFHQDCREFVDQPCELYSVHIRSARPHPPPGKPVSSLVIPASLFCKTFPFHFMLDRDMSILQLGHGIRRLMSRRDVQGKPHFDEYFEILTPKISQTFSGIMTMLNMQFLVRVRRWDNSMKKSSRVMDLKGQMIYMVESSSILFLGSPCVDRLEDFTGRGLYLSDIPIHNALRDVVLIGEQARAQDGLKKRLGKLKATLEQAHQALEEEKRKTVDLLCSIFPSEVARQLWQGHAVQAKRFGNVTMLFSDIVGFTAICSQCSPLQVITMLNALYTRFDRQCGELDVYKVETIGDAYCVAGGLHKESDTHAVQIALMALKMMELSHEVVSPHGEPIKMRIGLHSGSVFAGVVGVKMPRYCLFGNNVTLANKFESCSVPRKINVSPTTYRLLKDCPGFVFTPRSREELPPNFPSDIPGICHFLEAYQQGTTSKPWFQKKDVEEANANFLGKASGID
Assay: […]cGMP formation from [alpha-32P]GTP by purified sGC
Format: biochemical
Conditions: 0.5 mM GTP, 3 mM MgCl2, 1 mM cGMP, 0.5% Tween 20 (heme-depleted enzyme), TEA/HCl pH 7.4, 37 °C, no extract; NO-independent heme-site activator

## O=C(O)CCCCN(CCc1ccccc1OCc1ccc(CCc2ccccc2)cc1)Cc1ccc(C(=O)O)cc1 [cinaciguat]
  cGMP formation (activation): cGMP formation by Tween 20-treated sGC in the presence of the NO-independent heme-site activator cinaciguat
